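1) Cells in 96-well plates. 2) Compound, 48 h, 5 concentrations. 3) Linear interpolation between surrounding doses. 4) Unreached endpoint = highest concentration. GI50 is the concentration that inhibits growth by half. The concentration for full growth arrest is given as TGI.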

The test system of one assay is BT-549 breast. The assay is described as follows: NCI anticancer screen, dose series, 48 h.
In the case of `O=C1CSC(N2CCN(c3cccc(Cl)c3)CC2)=N1`, the GI50 is more than 100 µM and the TGI is more than 100 µM. For the compound `CCN1CCN(c2nc(NCCNc3ccnc4cc(Cl)ccc34)c3ccccc3n2)CC1`, the GI50 was 2.01 µM and the TGI was determined as 5.39 µM.

For `COc1ccccc1NC(=O)c1ccc(/C=C/C(=O)c2nccn2C)cc1`, the GI50 is 0.509 µM and the TGI is 1.19 µM.

Consider `Cn1cc(C2=C(c3ccc(OC[C@@H](O)CO)cc3)C(=O)NC2=O)c2ccccc21`, for which the GI50 is more than 25 µM and the TGI is more than 25 µM. As to `O=C1c2ccccc2-c2c1c1cc3c(cc1c(=O)n2CCCCl)OCO3`, the GI50 is 45.9 µM and the TGI was more than 100 µM.

A further assay concerns DLD-1 colon. The assay is described as follows: NCI anticancer screen, dose series, 48 h.
`NC1(CCCCCCCCCCC(=O)O)CNCCNCCNCCNC1` showed a TGI of more than 100 µM. `C1CN2N3CCCC23C1` (stereo not given) had a TGI of more than 100 µM.

The compound `Cc1cccc(C(C)(C)C)c1NC(=O)C(=O)Cc1nc2ccccc2s1` returned a TGI of more than 100 µM.

Compound `CC(=O)OCCc1cccnc1/C=N/O` returned a TGI of more than 100 µM.

`CCC1CCC2CCCC(C)N12` (stereo not given) displayed a TGI of more than 100 µM. Same read-out and setting: in the case of `O=C1CC[C@H]2CNC(=O)C[C@H]2C1` it was more than 100 µM; in that of `CN1CCCNCCN(CCc2ccccn2)CCCN(C)CC1`, more than 100 µM. Compound `C[C@]12CCC(=O)C=C1CC[C@@H]1C2CC[C@]2(C)NC(=O)C(C#N)CC12` (stereo not given in full) yielded a TGI of more than 100 µM. In turn, `CCOC(=O)CCCO` yielded a TGI of more than 100 µM.

`CC1=CCCC(OC(N)=O)C1` (stereo not given) came in with a TGI of more than 100 µM.

Regarding `c1ccc(-c2nnc(-c3nn(-c4ccccc4)c4nc5ccccc5nc34)o2)cc1`, the TGI is more than 100 µM. Turning to `O=[N+]([O-])c1ccc(NSc2ccccc2)cc1`, the TGI came out at 64 µM. Still for that read-out and setting: in the case of `COc1ccc(N=Cc2cc(OC)c(OC)c(OC)c2)cc1` it was more than 100 µM. In the case of `Cc1c(C(=O)/C=C/c2cccc3ccccc23)[n+](=O)c2ccccc2n1[O-]`, the TGI stood at 23.3 µM. On the same count and under the same terms, in the case of `CC(=O)/C=C/c1cccc(N=S)c1` it was 16.5 µM; in that of `COc1cc([C@@H]2c3cc4c(cc3[C@@H](NC(=O)c3cccc([N+](=O)[O-])c3)C3COC(=O)[C@@H]32)OCO4)cc(OC)c1O` (stereo not given in full), more than 67.9 µM.

`O=C1/C(=C/c2ccccc2)CN(C(=O)Oc2ccc(Cl)cc2)C/C1=C\c1ccccc1` showed a TGI of 3.61 µM. `CC1=C[C@@H]2Cc3occc3C(C)(C)[C@@H]2CC1` registered a TGI of 32.8 µM. `O=C1NC(=O)C2C(=O)NC(=O)C1C2(c1ccccc1)c1ccc(Cl)cc1` (stereo not given): the TGI is more than 100 µM.

For the compound `O=C(O)c1cc(S(=O)(=O)N=NC=C2c3ccccc3N(O)c3ccccc32)ccc1O`, the TGI is 64.6 µM. `O=c1[nH]c(=O)n(C2CC(O)C(CO)O2)cc1C#Cc1c(F)c(F)c(F)c(F)c1F` (stereo not given) yielded a TGI of more than 100 µM. Compound `COC(=O)C(CC(=O)c1cc2c(cc1I)OCO2)Cc1cc(OC)c(OC)c(OC)c1I` (stereo not given) gave a TGI of more than 100 µM. The same measure, in the same setting: in the case of `C/C(=N\NC(N)=S)c1ccc(C)cc1C` it was more than 100 µM; in that of `O=S(=O)(O)C(O)/C=C/c1ccccc1` (stereo not given), more than 100 µM; in that of `O=C(Nc1ccccc1[N+](=O)[O-])c1ccccc1`, more than 100 µM. `COc1ccc(/C=C(/C(=O)O)c2cc(OC)c(OC)c(OC)c2)cc1` came in with a TGI of more than 100 µM. The compound `O=C1Oc2cc3c(c4cccc1c24)OCN(c1ccc(Cl)cc1)C3` had a TGI of more than 54.2 µM. The same measure, in the same setting: in the case of `COc1cc2c(cc1OC)C1C=NC(C(=O)O)(C2)c2ccccc21` (stereo not given) it was more than 100 µM; in that of `C[Si](C)(C)c1ccc(CC2(Cc3ccc([Si](C)(C)C)cc3)CCNC2)cc1`, 6.87 µM; in that of `Cc1cc(C)nc(NS(=O)(=O)c2ccc(NC(=O)c3cccc4c(=O)c5ccccc5[nH]c34)cc2)n1`, 45.6 µM. In the case of `CCCCCCCCCCCCCCC1OC(=O)c2ccccc21` (stereo not given), the TGI is more than 100 µM. In turn, `CC(C)(C)C1=NC(S)NC(CCC(=O)Nc2ccccc2[N+](=O)[O-])=C1` (stereo not given) displayed a TGI of more than 100 µM.

In another assay the test system is DMS 114 small cell lung. The assay is described as follows: NCI anticancer screen, dose series, 48 h.
For `NC1(CCCCCCCCCCC(=O)O)CNCCNCCNCCNC1`, the TGI is more than 100 µM. `C1CN2N3CCCC23C1` (stereo not given) came in with a TGI of more than 100 µM. The compound `Cc1cccc(C(C)(C)C)c1NC(=O)C(=O)Cc1nc2ccccc2s1` showed a TGI of more than 100 µM.

`CC(=O)OCCc1cccnc1/C=N/O` registered a TGI of more than 100 µM. As for `CCC1CCC2CCCC(C)N12` (stereo not given), the TGI is more than 100 µM. `C#CC(C)(C)Oc1cc(O)c2c(=O)c3ccccc3n(C)c2c1`: the TGI was more than 100 µM.

Turning to `CN1CCCNCCN(CCc2ccccn2)CCCN(C)CC1`, the TGI was more than 58.2 µM. The same measure, in the same setting: the result for `C[C@]12CCC(=O)C=C1CC[C@@H]1C2CC[C@]2(C)NC(=O)C(C#N)CC12` (stereo not given in full) reads more than 100 µM; that for `COC(=O)c1c(OC)cccc1C(=O)O`, more than 100 µM; that for `c1ccc(-c2nnc(-c3nn(-c4ccccc4)c4nc5ccccc5nc34)o2)cc1`, more than 100 µM.

The compound `O=[N+]([O-])c1ccc(NSc2ccccc2)cc1` displayed a TGI of more than 100 µM.

As to `COc1ccc(N=Cc2cc(OC)c(OC)c(OC)c2)cc1`, the TGI was more than 100 µM. On the same count and under the same terms, the result for `Cc1c(C(=O)/C=C/c2cccc3ccccc23)[n+](=O)c2ccccc2n1[O-]` reads 16.8 µM; that for `CC(=O)/C=C/c1cccc(N=S)c1`, more than 66.1 µM; that for `O=C1/C(=C/c2ccccc2)CN(C(=O)Oc2ccc(Cl)cc2)C/C1=C\c1ccccc1`, 3.68 µM.

The compound `CC1=C[C@@H]2Cc3occc3C(C)(C)[C@@H]2CC1` gave a TGI of 35.9 µM. As to `O=C(O)c1cc(S(=O)(=O)N=NC=C2c3ccccc3N(O)c3ccccc32)ccc1O`, the TGI amounted to 50.8 µM. The same measure, in the same setting: in the case of `O=c1[nH]c(=O)n(C2CC(O)C(CO)O2)cc1C#Cc1c(F)c(F)c(F)c(F)c1F` (stereo not given) it was more than 100 µM.

The record behind these values is PubChem BioAssay (NCI).
